Test results reported in ChEMBL document CHEMBL5030556, “Selection and Identification of Novel Antibacterial Agents against Planktonic Growth and Biofilm Formation of Enterococcus faecalis” (J Med Chem, 2021).
Each block holds one compound with its values, some of them ahead of it. Active and inactive are the calls of the source. The calls are words filed in the database; no cut-off is given here.

Legend:
Enterococcus faecalis [1] = test: Antibiofilm activity against Enterococcus faecalis assessed as reduction in amount of viable biofilm-embedded bacterial cells at 50 uM measured by YTO 9/PI staining followed by confocal laser scanning microscopy; format: functional
Enterococcus faecalis [2] = test: Antimicrobial activity against Enterococcus faecalis OG1RF assessed as reduction in visible bacterial growth incubated for 16 to 20 hrs by microdilution broth assay; format: functional; conditions: time 16-20 hrs
[3] = Hemolytic activity against human erythrocytes at 50 uM incubated for 1 hr at 570 nm by spectrophotometry; format: ADME, tissue-based, Erythrocyte; conditions: read-out: Activity
Enterococcus faecalis [4] = test: Antibiofilm activity against Enterococcus faecalis FB-1 assessed as inhibition of biofilm maturation measured after 24 hr; format: functional, organism-based
Enterococcus faecalis [5] = test: Bactericidal activity against Enterococcus faecalis OG1RF assessed as reduction in bacterial colonies incubated for 16 to 20 hrs by microdilution broth analysis; format: functional; conditions: time 16-20 hrs, read-out: MBC99.9
Enterococcus faecalis [6] = test: Bacteriostatic activity against planktonic cells of Enterococcus faecalis OG1RF measured by microdilution broth assay; format: functional, organism-based
[7] = Hemolytic activity against human erythrocytes at 200 uM incubated for 1 hr at 570 nm by spectrophotometry; format: ADME, tissue-based, Erythrocyte; conditions: read-out: Activity
[8] = Cytotoxicity against african green monkey Vero cells assessed as inhibition of cell growth by MTT assay; format: cell-based; conditions: chlorocebus sabaeus
Enterococcus faecalis [9] = test: Inhibition of biofilm formation of Enterococcus faecalis FB-1 assessed as inhibitory rate of formation at 100 uM for 24 hrs measured at 570 nm by crystal violet staining based spectrophotometry; format: functional
[10] = Inhibition of Enterococcus faecalis OG1RF YycG autophosphorylation by Kinase-Glo luminescent kinase assay
Enterococcus faecalis [11] = test: Antibiofilm activity against Enterococcus faecalis FB-1 assessed as eradication of mature biofilm by semiquantitative microtiter assay; format: functional, organism-based
Enterococcus faecalis [12] = test: Antibacterial activity against Enterococcus faecalis FB-1 assessed as reduction in visible bacterial growth incubated for 16 to 20 hrs by microdilution broth assay; format: functional; conditions: time 16-20 hrs
Staphylococcus aureus [13] = test: Antibacterial activity against Staphylococcus aureus ATCC 29213 assessed as reduction in visible bacterial growth incubated for 16 to 20 hrs by microdilution broth assay; format: functional; conditions: time 16-20 hrs
Enterococcus faecalis [14] = test: Antibiofilm activity against Enterococcus faecalis FB-1 assessed as eradication of mature biofilm measured after 72 hrs by semiquantitative microtiter assay; format: functional
[15] = tested on: Staphylococcus epidermidis; test: Antibacterial activity against Staphylococcus epidermidis ATCC 12228 assessed as reduction in visible bacterial growth incubated for 16 to 20 hrs by microdilution broth assay; format: functional; conditions: time 16-20 hrs
[16] = tested on: Staphylococcus epidermidis; test: Antibacterial activity against Staphylococcus epidermidis ATCC 35984 assessed as reduction in visible bacterial growth incubated for 16 to 20 hrs by microdilution broth assay; format: functional; conditions: time 16-20 hrs
Enterococcus faecalis [17] = test: Antibacterial activity against Enterococcus faecalis ATCC 29212 assessed as reduction in visible bacterial growth incubated for 16 to 20 hrs by microdilution broth assay; format: functional; conditions: time 16-20 hrs
Streptococcus agalactiae [18] = test: Antibiofilm activity against Streptococcus agalactiae assessed as inhibition of biofilm formation at sub-MIC concentration; format: functional, organism-based
Enterococcus faecium [19] = test: Antibiofilm activity against Enterococcus faecium assessed as inhibition of biofilm formation at sub-MIC concentration; format: functional, organism-based
Enterococcus faecalis [20] = test: Binding affinity to Enterococcus faecalis FB-1 YycG assessed as slow association and slow dissociation measured by Octet RED96 response assay
Enterococcus faecalis [21] = test: Antibiofilm activity against Enterococcus faecalis assessed as reduction in amount of viable biofilm-embedded bacterial cells at 50 uM in presence of daptomycin measured by YTO 9/PI staining followed by confocal laser scanning microscopy; format: functional
Streptococcus agalactiae [22] = test: Antibacterial activity against Streptococcus agalactiae NSGC64 assessed as reduction in visible bacterial growth incubated for 16 to 20 hrs by microdilution broth assay; format: functional; conditions: time 16-20 hrs
Enterococcus faecalis [23] = test: Antibacterial activity against Enterococcus faecalis OG1RF assessed as reduction in visible bacterial growth incubated for 16 to 20 hrs by microdilution broth assay; format: functional; conditions: time 16-20 hrs
Enterococcus faecalis [24] = test: Antibiofilm activity against Enterococcus faecalis FB-1 assessed as eradication of mature biofilm measured after 48 hrs by semiquantitative microtiter assay; format: functional
Enterococcus faecium [25] = test: Antibacterial activity against Enterococcus faecium EF16M64 assessed as reduction in visible bacterial growth incubated for 16 to 20 hrs by microdilution broth assay; format: functional; conditions: time 16-20 hrs
Staphylococcus aureus [26] = test: Antibacterial activity against Staphylococcus aureus ATCC 35556 assessed as reduction in visible bacterial growth incubated for 16 to 20 hrs by microdilution broth assay; format: functional; conditions: time 16-20 hrs
Enterococcus faecalis [27] = test: Antibiofilm activity against Enterococcus faecalis assessed as reduction in amount of viable biofilm-embedded bacterial cells at 50 uM in presence of ampicillin measured by YTO 9/PI staining followed by confocal laser scanning microscopy; format: functional
Staphylococcus aureus [28] = test: Antibiofilm activity against Staphylococcus aureus assessed as inhibition of biofilm formation at sub-MIC concentration; format: functional, organism-based
Enterococcus faecalis [29] = test: Antibiofilm activity against Enterococcus faecalis assessed as inhibition of biofilm at 1/2 times of MIC incubated for 24 hrs; format: functional; set-up: scale not given: the % may be the effect or the level left
[30] = tested on: Staphylococcus epidermidis; test: Antibiofilm activity against Staphylococcus epidermidis assessed as inhibition of biofilm formation at sub-MIC concentration; format: functional, organism-based
Enterococcus faecalis [31] = test: Effect on initial adhesion capacity of Enterococcus faecalis assessed as attached cells at 25 uM for 6 hrs by crystal violet staining based microscopic assay (reference value: 0.412); format: functional
Escherichia coli = test: Antibacterial activity against Escherichia coli […] assessed as reduction in visible bacterial growth incubated for 16 to 20 hrs by microdilution broth assay; format: functional; conditions: time 16-20 hrs
Enterococcus faecalis [32] = test: Antibiofilm activity against Enterococcus faecalis FB-1 assessed as inhibition of biofilm maturation at 1.56 uM measured after 24 hr; format: functional, organism-based
Enterococcus faecalis [33] = test: Antibiofilm activity against Enterococcus faecalis FB-1 assessed as inhibition of biofilm infection at 25 uM by fluid shear system; format: functional, organism-based

Structure (SMILES): CC1(C)S[C@@H]2[C@H](NC(=O)[C@H](N)c3ccccc3)C(=O)N2[C@H]1C(=O)O [AMPICILLIN]
- Activity (Enterococcus faecalis [1]): 24.46%

Structure (SMILES): CCCCCCCCCC(=O)N[C@@H](Cc1c[nH]c2ccccc12)C(=O)N[C@H](CC(N)=O)C(=O)N[C@@H](CC(=O)O)C(=O)N[C@@H]1C(=O)NCC(=O)N[C@@H](CCCN)C(=O)N[C@@H](CC(=O)O)C(=O)N[C@H](C)C(=O)N[C@@H](CC(=O)O)C(=O)NCC(=O)N[C@H](CO)C(=O)N[C@@H]([C@H](C)CC(=O)O)C(=O)N[C@@H](CC(=O)c2ccccc2N)C(=O)O[C@@H]1C
- Activity (Enterococcus faecalis [1]): 8.45%

Structure (SMILES): COc1cc(C2C(C(=O)c3cc4ccccc4o3)=C(O)C(=O)N2c2nnc(SCc3ccccc3Cl)s2)ccc1O (stereo not given)
- MIC (Enterococcus faecalis [12]): > 200 µM
- MIC (Staphylococcus aureus [13]): > 200 µM
- MIC (Enterococcus faecalis [2]): > 200 µM
- hemolysis at 1 h, 50 µM [3]: 2.77%
- Activity (Enterococcus faecalis [14]): 66%
- MIC [15]: > 200 µM
- MIC [16]: > 200 µM
- MIC (Enterococcus faecalis [17]): > 200 µM
- Activity (Streptococcus agalactiae [18]): Active
- Activity (Enterococcus faecalis [4]): Dose-Dependent Effect
- Activity (Enterococcus faecium [19]): Active
- MBC (Enterococcus faecalis [5]): > 200 µM
- Activity (Enterococcus faecalis [20]): Active
- Activity (Enterococcus faecalis [21]): 47.16%
- MIC (Streptococcus agalactiae [22]): > 200 µM
- MIC (Enterococcus faecalis [23]): > 200 µM
- Activity (Enterococcus faecalis [24]): 51%
- MIC (Enterococcus faecium [25]): > 200 µM
- Activity (Enterococcus faecalis [6]): inactive
- hemolysis at 1 h, 200 µM [7]: 6.14%
- CC50 [8]: > 200 µM
- Activity (Enterococcus faecalis [1]): 52.85%
- inhibition at 100 µM (Enterococcus faecalis [9]): 92.7%
- MIC (Staphylococcus aureus [26]): > 200 µM
- Activity (Enterococcus faecalis [27]): 72.71%
- Activity (Staphylococcus aureus [28]): Active
- Activity (Enterococcus faecalis [29]): 74.8%
- Activity [30]: Active
- OD (Enterococcus faecalis [31]): 0.143
- MIC (Escherichia coli): > 200 µM
- Activity (Enterococcus faecalis [32]): Active
- Activity (Enterococcus faecalis [33]): Active
- IC50 [10]: 6.1 µM

Second part, led by results:

- MIC (Enterococcus faecalis [2]): > 200 µM
- IC50 [10]: 22 µM
Structure (SMILES): O=C(C1=C(O)C(=O)N(c2nnc(SCc3ccccc3)s2)C1c1ccccc1)c1cc2ccccc2o1 (stereo not given)
- hemolysis at 1 h, 50 µM [3]: 4.16%
- Activity (Enterococcus faecalis [4]): Dose-Dependent Effect
- MBC (Enterococcus faecalis [5]): > 200 µM
- Activity (Enterococcus faecalis [6]): inactive
- hemolysis at 1 h, 200 µM [7]: 7.01%
- CC50 [8]: > 200 µM
- Activity (Enterococcus faecalis [1]): 26.66%
- inhibition at 100 µM (Enterococcus faecalis [9]): 72.2%

- MIC (Enterococcus faecalis [2]): > 200 µM
- IC50 [10]: > 200 µM
Structure (SMILES): O=C(C1=C(O)C(=O)N(c2nnc(SCc3ccccc3)s2)C1c1ccccc1F)c1cc2ccccc2o1 (stereo not given)
- hemolysis at 1 h, 50 µM [3]: 4.44%
- Activity (Enterococcus faecalis [4]): Dose-Dependent Effect
- MBC (Enterococcus faecalis [5]): > 200 µM
- Activity (Enterococcus faecalis [11]): inactive
- Activity (Enterococcus faecalis [6]): inactive
- hemolysis at 1 h, 200 µM [7]: 8.31%
- CC50 [8]: > 200 µM
- inhibition at 100 µM (Enterococcus faecalis [9]): 73.8%
